Experimental data reported in patent publication EP0336976A1, “PHARMACEUTICAL PREPARATION FOR CURING MULTIPLE SCLEROSIS AND LATERAL A[…]” (VSESOJUZNY KARDIOLOGICHESKY NAUCHNY TSENTR AKADEMII …, priority 1987, dated 1989).
Where a SMILES comes first, the peptide text is derived from it. [ ]: non-standard residue; d: D form.

Columns and labels:
Toxicity (LD50) = details: in vivo; species and route not given; read-out: LD₅₀
[1] = test system: Leitungsbahnen des Hirnstammes; assay: Recording of short-latency auditory evoked potentials on acoustic stimulation in multiple sclerosis patients; assay type: in vivo, Menschen; details: MS patients
From the text: (§1) Bei der Behandlung der multiplen Sklerose mit dem erfindungsgemässen Präparat und mit T-Aktivin verwendete man neben einer klinischen Analyse der neurologischen Symptome auch eine Methode der Registrierung von kurzlatenten erzeugten Hörpotentialen auf die akustische Stimulation. Die Dynamik der neurologischen Symptome bewertete man in Punkten nach der Kurzkschen Skale. Man führt die Analyse der Punkten-Summe nach der Skale des neurologischen Defizits durch sowie nach der Skale der Invalidisierung (sich verschlimmernde Entwicklung) unter Berücksichtigung der sozialen Adaptation des jeweiligen Patienten durch. Bei der Untersuchung der kurzlatenten erzeugten Hörpotentiale erfolgte die Summierung von 3000 Antworten und es wurden 7 Komponenten registriert, die den funktionellen Zustand folgender Pegel eines Höranalysators widerspiegeln: I - Schneke des Hörnervs, II -Kerne des Cochlearkomplexes, III- Nucleus der oberen Olive, IV - Nucleus der lateralen Schleife, V - Kerne der Höcker der Vierhügelplatte, VI - Kerne mittlerer Kniehöcker, VII - Kerne Auditus kortex. Alle Komponenten wurden nach den Werten der Zwischenpeakintervalle und den Relationen der Peakamplituden analysiert. Die Kontrollgruppe für die Untersuchung der kurzlatenten erzeugten Hörpotentiale bildeten I2 praktisch gesunde Personen.
(§2) Die Untersuchung der Patienten erfolgte vor der Verordnung der Präparate, in 5 und in I4 Tagen nach dem Beginn ihrer Verabreichung.
Die Hauptgruppe der Patienten, die das erfindungsgemässe Präparat verabreicht bekamen, bestand aus 24 Personen (6 Männer und I8 Frauen) im alter von 20 bis 49 Jahren mit zerebrospinaler Form der multiplen Sklerose. Die Dauer der Erkrankung betrug von 2 bis 7 Jahren. Das erfindungsgemässe Präparat führe man den Patienten intramuskulär zu je I bis 2 mg zweimal am Tage innerhalb von 5 Tagen ein. Die Gruppe der Patienten, die das T-Aktivin bekam, bestand aus I4 Personen (6 Männer und 8 Frauen) im Alter von 23 bis 47 Jahren mit zerebrospinaler Form der multiplen Sklerose. Die Dauer der Erkrankung betrug von 2 bis 7 Jahren. […]

[2] = test system: Patienten mit zerebrospinaler Form der multiplen Sklerose; assay: Clinical trial in multiple sclerosis patients: neurological status scored in points (Kurtzke scale: neurological deficit and progression/disability scale), on top of basic therapy; assay type: in vivo, Menschen
Method: Das erfindungsgemässe Präparat für die Behandlung der multiplen Sklerose und der myotrophischen Lateralsklerose wurde in einer Klinik an Menschen erprobt.
Bei der multiplen Sklerose erfolgte die Behandlung mit dem angemeldeten Präparat unter Anwendung der Basistherapie, die die Vitamine der B-Gruppe, Glutaminsäure, Nikotinsäure, Zerebrolysin, Midokalm, und Essentiale einschliesst. Das erfindungsgemässe Präparat wurde den Patienten intramuskulär zu je I bis 5 mg des Wirkstoffes, der in I ml einer physiologischen Lösung aufgelöst wird, zweimal pro Tag innerhalb von 5 Tagen eingeführt.
Bei der Behandlung der multiplen Sklerose wurde die Wirkung des erfindungsgemässen Präparates mit der Wirkung von T-Aktivin verglichen, das unter Anwendung der gleichen wie bei der Behandlung mit dem angemeldeten Präparat Basistherapie eingeführt wurde. Das T-Aktivin führte man den Patienten intramuskulär einmal pro Tag zu je I ml I,0%iger Lösung innerhalb von 5 Tagen ein. Nach einer 7-tägigen Unterbrechung führte man das T-Aktivin in der gleichen dosis während 2 Tage ein.
as §1, §2
Hervorzuheben ist, dass bei den Patienten, denen das erfindungsgemässe Präparat und das T-Aktivin verordnet wurden, innnerhalb der letzten zwei Monate keine Dynamik im neurologischen Status nachgewiesen wurde. Das gab die Möglichkeit, die Verbesserung des Zustandes als Effekt von der Verordnung der Präparate zu betrachten.
Die Hauptgruppe der Patienten, die das erfindungsgemässe Präparat verabreicht bekamen, bestand aus 24 Personen (6 Männer und I8 Frauen) im alter von 20 bis 49 Jahren mit zerebrospinaler Form der multiplen Sklerose. Die Dauer der Erkrankung betrug von 2 bis 7 Jahren. Das erfindungsgemässe Präparat führe man den Patienten intramuskulär zu je I bis 2 mg zweimal am Tage innerhalb von 5 Tagen ein. Die Gruppe der Patienten, die das T-Aktivin bekam, bestand aus I4 Personen (6 Männer und 8 Frauen) im Alter von 23 bis 47 Jahren mit zerebrospinaler Form der multiplen Sklerose. Die Dauer der Erkrankung betrug von 2 bis 7 Jahren.
Das T-Aktivin führte man den patienten intramuskulär zu je I ml 0,I%iger Lösung einmal pro Tag innerhalb von 5 Tagen ein. […]
Bei der Einlieferung ins Krankenhaus wurden dem Patienten Vitamine BI und B₆, Glutaminsäure, innerhalb eines Monates Zerebrolysin verabreicht, durchgeführt wurden kurze Kuren mit Midokalm und Essentiale. […]

[3] = test system: Patienten mit amyotrophischen Lateralsklerose; assay: Clinical trial in amyotrophic lateral sclerosis patients: course of the disease, on top of conventional nonspecific therapy; assay type: in vivo, Menschen; details: ALS
[4] = patients with sekundärer Verschlimmerung, effect mainly am I5. Tag
[5] = patients: Leichter Grad, Am I5. Tag
[6] = patients: Remittierend, a) Verschlimmerung, Am I5. Tag
[7] = of 62 patients, listed as Präparat + Nichtspezifische Therapie
[8] = of 62 patients, pronounced plus moderate improvement

## CC(C)C[C@H](NC(=O)[C@H](Cc1ccccc1)NC(=O)CNC(=O)[C@@H](C)NC(=O)[C@@H](N)Cc1ccc(O)cc1)C(=O)N[C@@H](CCCNC(=N)N)C(=O)O [erfindungsgemässe Präparat, Tyr-D-Ala-Gly-Phe-Leu-Arg] (H-Y[dA]GFLR-OH)
Toxicity (LD50)
  LD50: 520 mg/kg
[1]; Am 6. Tag
  Differenzen der Latenzwerte III Peak-I Peak: 2,22±0,05
[1]; Am I5. Tag
  Differenzen der Latenzwerte III Peak-I Peak: 2,20±0,06
  Verhältnis der Amplituden V Peak - I Peak: 0,88±0,23
[2]; Beispiel I, Patientin K., 46 years, progredient MS, after 5 days of I mg twice daily, before treatment 6
  Punkte nach der Skale der sich verschlimmernden Entwicklung: 4
[2]; MS patients, whole group, after the course of treatment
  klinische Verbesserung, Anteil der Patienten: 89%
[2]; patients with mittlerem Schweregrad, am 6. Tag
  Verringerung der Summe der Punkte nach der Skale des neurologischen Defizits: 4,3 Punkte
[2]; [4]
  Senkung des Indexes nach der Skale der sich verschlimmernden Entwicklung: 2,4 Punkte
  Verringerung der Summe der Punkte nach der Skale des neurologischen Defizits: 6,3 Punkte
[2]; [5]
  Gesamtpunktenzahl nach der Skala des neurologischen Defizits: 8,6±0,9 Punkte
  Index nach der Skala der sich verschlimmernden Entwicklung: 2,8±0,5 Punkte
[2]; patients: Leichter Grad, Vor der Behandlung (baseline)
  Index nach der Skala der sich verschlimmernden Entwicklung: 3,7±0,4 Punkte
[2]; patients: Mittlerer Grad, Am 6. Tag
  Index nach der Skala der sich verschlimmernden Entwicklung: 4,9±0,3 Punkte
[2]; patients: Mittlerer Grad, Am I5. Tag
  Index nach der Skala der sich verschlimmernden Entwicklung: 4,4±0,6 Punkte
[2]; patients: Remittierend, a) Verschlimmerung, Am 6. Tag
  Index nach der Skala der sich verschlimmernden Entwicklung: 3 Punkte
[2]; [6]
  Gesamtpunktenzahl nach der Skala des neurologischen Defizits: 5 Punkte
  Index nach der Skala der sich verschlimmernden Entwicklung: 2 Punkte
[2]; patients: Remittierend, a) Verschlimmerung, Vor der Behandlung (baseline)
  Index nach der Skala der sich verschlimmernden Entwicklung: 5 Punkte
[2]; patients: Remittierend, b) Remission, Am 6. Tag
  Index nach der Skala der sich verschlimmernden Entwicklung: 3,3±0,5 Punkte
[2]; patients: Remittierend, b) Remission, Am I5. Tag
  Index nach der Skala der sich verschlimmernden Entwicklung: 3,4±0,5 Punkte
[2]; patients: Remittierend, b) Remission, Vor der Behandlung (baseline)
  Index nach der Skala der sich verschlimmernden Entwicklung: 4,3±0,8 Punkte
[2]; patients: Remittierend, c) sekundäre Verschlimmerung, Am 6. Tag
  Index nach der Skala der sich verschlimmernden Entwicklung: 4,8±2,0 Punkte
[2]; patients: Remittierend, c) sekundäre Verschlimmerung, Am I5. Tag
  Index nach der Skala der sich verschlimmernden Entwicklung: 3,5±0,4 Punkte
[2]; single patient in acute state of MS, zum I5. Tag
  Verringerung des Index nach der Skale der Weiterentwicklung der Krankheit: 3 Punkte
[2]; whole group, in 5 Tagen nach dem Beginn der Behandlung
  Verringerung der Summe der Punkte nach der Skale des neurologischen Defizits: 2,9 Punkte
[2]; whole group, in I4 Tagen nach dem Beginn der Behandlung
  Verringerung der Summe der Punkte nach der Skale des neurologischen Defizits: 3,8 Punkte
[3]; of 62 patients
  Verbesserung Ausgeprägt, number of patients: 8
  Verbesserung Mässig, number of patients: 16
  Verbesserung Mässig, share of patients: 26%
  keine Anzeichen einer sich verschlimmernden Entwicklung (stabiler Zustand oder Verbesserung), share of patients: 84%
[3]; [7]
  Sich verschlimmernde Entwicklung, number of patients: 10
  Sich verschlimmernde Entwicklung, share of patients: 16%
  Verbesserung Ausgeprägt, share of patients: 13%
[3]; [8]
  Verbesserung des Zustandes, number of patients: 24 Personen
  Verbesserung des Zustandes, share of patients: 39%
[3]; of 62 patients, stable state
  Fehlen der Dynamik, number of patients: 28
  Fehlen der Dynamik, share of patients: 45%
[3]; of 62 patients, stable state or improvement
  keine Anzeichen einer sich verschlimmernden Entwicklung, number of patients: 52 Personen
[3]; preparation plus conventional therapy vs conventional therapy alone
  sich verschlimmernde Entwicklung seltener im Vergleich zur Kontrollgruppe: 4,8 fache
[3]; Beispiel 3, Patient, two 2-week courses of I mg i.m. twice daily, at admission 2 Punkte
  Parese in den Füssen: 0 Punkte
[3]; Beispiel 4, Patient E., 4I years, two 2-week courses of 2 mg i.m. twice daily
  Paresegrad in proximalen Abschnitten von Beinen und Armen: 0 Punkte
[3]; Beispiel 5, Patient M., second stay, two 2-week courses of I mg i.m. twice daily
  Parese der Extremitäten: 0 Punkte
